Earlier results, collected in patent US20210038669A1, “Composition(s) for Topically Treating Pain” (priority 2016, published 2021).

Test system: neuropathic pain conditions (postherpetic neuralgia, trigeminal, postsurgical or post-traumatic neuralgia)
Conditions: 5% patch, 5% cream, 5% gel, 8% spray; all but one study; third tier (very low quality) evidence

CCN(CC)CC(=O)Nc1c(C)cccc1C [lidocaine, Lidocaine]
pain relief versus placebo: better than placebo
